Marks after values point to notes of the source that are not given here.
Tests used:
[1] = system: rat 9L gliosarcomas; design: method as in PMID 21559510; conditions: cited from earlier work
[2] = system: human U251 glioma xenografts; design: method as in PMID 21559510; conditions: human U251 glioma xenografts ref 12; cited from earlier work
[3] = system: primary acute myeloid leukemia (AML) cells; conditions: cited from earlier work
[4] = cited from earlier work
[5] = system: intracerebral C6 glioma; assay: Survival time analysis in C6 intracerebral glioma rats; type: in vivo, Wistar rats; conditions: VCR, treated daily for 21 days
Description: C6 tumors were maintained as subcutaneous tumors in rats.
The survival time analyses were performed in C6 intracerebral glioma rats. […] Animals were monitored daily for signs of mortality and weight. Rats were sacrificed when a loss of mobility, lethargy, hemorrhaging around the eyes, or a hunched posture was observed as previously described. The observation time was terminated when all the vehicle rats died. Then the other rats were euthanized by CO2 asphyxiation.

[6] = system: intracerebral C6 glioma
Description: Adult Wistar rats (120–180 g, age 4–8 weeks) were obtained from the Animal Center at the Academy of Military Medical Sciences and had animal certification of SCXK (army) 2012–001. Animals were housed in collective cages at a temperature of 23 ± 2°C and relative humidity of 40% to 70%. All rats had free access to food and water.
Intracerebral tumor implantations were performed according to the following procedures. C6 tumors were maintained as subcutaneous tumors in rats. Subcutaneous masses were excised, dissociated, and mixed with matrigel on ice (BD Biosciences) at a ratio of 1:1. After removing of the hair on the skull, a small midline incision in the scalp was gently made under anesthesia with 2% sodium pentobarbital at a dose of 40mg/kg. C6 cells in matrigel (0.1 mL of the cell/matrigel mixture containing 10^8 cells /mL) were carefully injected into the right frontal cortex by a special 16-gauge stainless steel needle with 5 mm needle tubing. Implantation coordinates were determined from Swanson’s Stereotaxic Atlas guidelines (1992): 1.0 mm anterior and 3.0 mm lateral to bregma, at a depth of 5.0 mm from the brain surface. […] The syringe was slowly retracted, the hole was sealed with bone wax, and the incision was sutured under aseptic conditions. […] Then 0.015 mg/kg buprenorphine (s.c.) was administered to relieve the pain. The rats were replaced in cages and allowed to recover from anesthesia.
Rats were divided into the following 5 treatment groups 24 h after surgery (n = 9 rats /group) according to rat weight: 1) vehicle (normal saline: NS); 2) vincristine (VCR) at 100μg/kg; 3) DMAMCL at 25 mg/kg; 4) DMAMCL at 50 mg/kg; and 5) DMAMCL at 100 mg/kg. All drugs were prepared in NS and administered once daily for 21 days. DMAMCL was administered orally, and VCR was injected into the caudal vein. Rats were weighed and monitored for signs of mortality daily. Twenty one days into the treatment, rats were euthanized via CO2 asphyxiation under deep anesthesia by sodium pentobarbital. Brains and tumors were separated from the cerebellum and medulla oblongata, and weighed, photographed, fixed in formalin, and embedded in paraffin for sectioning. The tumor: brain weight ratio was assessed to observe the degree of tumor cell growth in brain. Serial sections (5 μm in thickness) were stained by hematoxylin and eosin (HE).

[7] = system: rat 9L gliosarcoma; design: method as in PMID 21727209; conditions: direct injection into the brain using biodegradable beads, increased from 12.5 days ref 26; cited from earlier work
[8] = VCR 100μg/kg caudal vein once daily for 21 days

C=CCc1ccc(O)c(-c2ccc(O)c(CC=C)c2)c1 [Honokiol]
Increase of survival compared to controls [1]: 5 days
Reduction of tumor volume ([1]; rat 9L gliosarcomas ref 12): 52.77%
Reduction of tumor volume [2]: 50.21%

C=C1C(=O)O[C@H]2[C@H]1CCC(C)=C1CC[C@@](C)(O)[C@@H]12 [MCL, micheliolide]
Number of colony-forming units of primary AML cells [3]: greatly reduced the number of colony-forming units
Stability compared with PTL [4]: more stable than PTL

C=C1C(=O)O[C@H]2[C@H]1CC/C(C)=C/CC[C@@]1(C)O[C@@H]21 [PTL, Parthenolide]
Stability ([4]; acidic and basic conditions ref 15): unstable under both acidic and basic conditions

CC[C@]1(O)C[C@H]2CN(CCc3c([nH]c4ccccc34)[C@@](C(=O)OC)(c3cc4c(cc3OC)N(C=O)[C@H]3[C@@](O)(C(=O)OC)[C@H](OC(C)=O)[C@]5(CC)C=CCN6CC[C@]43[C@@H]65)C2)C1 [VCR, vincristine, reference compound]
Median survival of deceased animals [5]: 24 days
Time of death End [5]: 57 days
Time of death Start [5]: 23 days
Survival (# of rats) End ([5]; 63 days, n = 10): 7 # of rats
Survival ([5]; at 63 days): 70 ^*** %
Mean survival ([5]; observation 63 days): 54.5 ± 16.4 days
Median survival ([5]; observation 63 days): 63 days
Deaths during the 21-day study ([6]; VCR 100μg/kg caudal vein once daily): One rat died on day 18
Inhibition (percent decrease in tumor weight compared to the vehicle group) [6, 8]: 81.6%
Tumor weight [6, 8]: 0.13 ± 0.07 g
Tumor/brain [6, 8]: 6.5 ± 2.6 %
Histopathology of brain tissue (HE) ([6]; VCR 100μg/kg, 21 days): appeared similar to normal brain tissues

CO[C@H]1C[C@@H]2CC[C@@H](C)[C@@](O)(O2)C(=O)C(=O)N2CCCC[C@H]2C(=O)O[C@H]([C@H](C)C[C@@H]2CC[C@@H](O)[C@H](OC)C2)CC(=O)[C@H](C)/C=C(\C)[C@@H](O)[C@@H](OC)C(=O)[C@H](C)C[C@H](C)/C=C/C=C/C=C/1C [rapamycin, Rapamycin]
Survival [7]: 29 days

— paper PMC4320118, “Micheliolide Derivative DMAMCL Inhibits Glioma Cell Growth In Vitro and In Vivo” (PLoS ONE, 2015)
